Results from the NIST ThermoML archive (doi:10.1021/je900387e).
± gives the expanded uncertainty stated by the source.

Test: xn = mol fraction of the nth substance listed
Conditions: Liquid, Pycnometric method

CCCCCl [1-chlorobutane] + O=C=O
Conditions	mass density [kg/m3]
322.7 K, 8980 kPa, x1 = 0.0243	377 ± 4
322.7 K, 8990 kPa, x1 = 0.0744	690 ± 4
322.7 K, 9050 kPa, x1 = 0.0243	387 ± 4
322.7 K, 9110 kPa, x1 = 0.0243	397 ± 4
322.7 K, 9120 kPa, x1 = 0.0981	754 ± 4
322.7 K, 9140 kPa, x1 = 0.0744	698 ± 4
322.7 K, 9170 kPa, x1 = 0.0243	407 ± 4
322.7 K, 9240 kPa, x1 = 0.0243	418 ± 4
322.7 K, 9280 kPa, x1 = 0.1488	802 ± 4
322.7 K, 9290 kPa, x1 = 0.0744	705 ± 4
322.7 K, 9300 kPa, x1 = 0.0981	759 ± 4
322.7 K, 9320 kPa, x1 = 0.0243	430 ± 4
322.7 K, 9390 kPa, x1 = 0.0243	443 ± 4
322.7 K, 9470 kPa, x1 = 0.0243	456 ± 4
322.7 K, 9470 kPa, x1 = 0.0744	713 ± 4
322.7 K, 9500 kPa, x1 = 0.0981	764 ± 4
322.7 K, 9560 kPa, x1 = 0.0243	470 ± 4
322.7 K, 9600 kPa, x1 = 0.1488	807 ± 4
322.7 K, 9630 kPa, x1 = 0.0243	482 ± 4
322.7 K, 9700 kPa, x1 = 0.0243	494 ± 4
322.7 K, 9700 kPa, x1 = 0.0744	721 ± 4
322.7 K, 9720 kPa, x1 = 0.0981	769 ± 4
322.7 K, 9740 kPa, x1 = 0.0243	501 ± 4
322.7 K, 9790 kPa, x1 = 0.0243	507 ± 4
322.7 K, 9810 kPa, x1 = 0.0243	510 ± 4
322.7 K, 9940 kPa, x1 = 0.0744	729 ± 4
322.7 K, 9950 kPa, x1 = 0.1488	811 ± 4
322.7 K, 10080 kPa, x1 = 0.0981	777 ± 4
322.7 K, 10210 kPa, x1 = 0.0744	738 ± 4
322.7 K, 10310 kPa, x1 = 0.1488	815 ± 4
322.7 K, 10480 kPa, x1 = 0.0981	785 ± 4
322.7 K, 10520 kPa, x1 = 0.0744	746 ± 4
322.7 K, 10730 kPa, x1 = 0.1488	820 ± 4
322.7 K, 10870 kPa, x1 = 0.0744	755 ± 4
322.7 K, 10920 kPa, x1 = 0.0981	792 ± 4
322.7 K, 11110 kPa, x1 = 0.1488	823 ± 4
322.7 K, 11230 kPa, x1 = 0.0744	764 ± 4
322.7 K, 11440 kPa, x1 = 0.0981	802 ± 4
322.7 K, 11540 kPa, x1 = 0.1488	828 ± 4
322.7 K, 11680 kPa, x1 = 0.0744	773 ± 4
322.7 K, 12000 kPa, x1 = 0.0981	810 ± 4
322.7 K, 12020 kPa, x1 = 0.1488	832 ± 4
322.7 K, 12170 kPa, x1 = 0.0744	782 ± 4
322.7 K, 12270 kPa, x1 = 0.1488	835 ± 4
322.7 K, 12520 kPa, x1 = 0.1488	837 ± 4
322.7 K, 12600 kPa, x1 = 0.0981	818 ± 4
322.7 K, 12720 kPa, x1 = 0.0744	792 ± 4
322.7 K, 12780 kPa, x1 = 0.1488	839 ± 4
322.7 K, 13030 kPa, x1 = 0.0981	824 ± 4
322.7 K, 13270 kPa, x1 = 0.1488	844 ± 4
322.7 K, 13320 kPa, x1 = 0.0744	802 ± 4
322.7 K, 13530 kPa, x1 = 0.0981	830 ± 4
322.7 K, 13570 kPa, x1 = 0.1488	846 ± 4
322.7 K, 13850 kPa, x1 = 0.1488	849 ± 4
322.7 K, 14020 kPa, x1 = 0.0744	812 ± 4
322.7 K, 14030 kPa, x1 = 0.0981	836 ± 4
322.7 K, 14170 kPa, x1 = 0.1488	851 ± 4
322.7 K, 14470 kPa, x1 = 0.1488	853 ± 4
322.7 K, 14590 kPa, x1 = 0.0981	843 ± 4
322.7 K, 14600 kPa, x1 = 0.0744	820 ± 4
322.7 K, 14740 kPa, x1 = 0.1488	856 ± 4
322.7 K, 14960 kPa, x1 = 0.0744	824 ± 4
322.7 K, 15170 kPa, x1 = 0.0981	849 ± 4
322.7 K, 15190 kPa, x1 = 0.0744	828 ± 4
324 K, 9110 kPa, x1 = 0.0483	519 ± 4
324 K, 9140 kPa, x1 = 0.0483	527 ± 4
324 K, 9190 kPa, x1 = 0.0483	537 ± 4
324 K, 9250 kPa, x1 = 0.0483	546 ± 4
324 K, 9310 kPa, x1 = 0.0483	556 ± 4
324 K, 9370 kPa, x1 = 0.0483	566 ± 4
324 K, 9450 kPa, x1 = 0.0483	576 ± 4
324 K, 9540 kPa, x1 = 0.0483	587 ± 4
324 K, 9630 kPa, x1 = 0.0483	599 ± 4
324 K, 9750 kPa, x1 = 0.0483	611 ± 4
324 K, 9850 kPa, x1 = 0.0483	620 ± 4
324 K, 10010 kPa, x1 = 0.0483	633 ± 4
324 K, 10200 kPa, x1 = 0.0483	646 ± 4
324 K, 10420 kPa, x1 = 0.0483	660 ± 4
324 K, 10690 kPa, x1 = 0.0483	674 ± 4
324 K, 11030 kPa, x1 = 0.0483	689 ± 4
324 K, 11440 kPa, x1 = 0.0483	705 ± 4
324 K, 11960 kPa, x1 = 0.0483	721 ± 4
324 K, 12550 kPa, x1 = 0.0483	738 ± 4
324 K, 13030 kPa, x1 = 0.0483	749 ± 4
324 K, 13450 kPa, x1 = 0.0483	758 ± 4
324 K, 13950 kPa, x1 = 0.0483	768 ± 4
324 K, 14450 kPa, x1 = 0.0483	778 ± 4
324 K, 15020 kPa, x1 = 0.0483	788 ± 4
327.6 K, 8120 kPa, x1 = 0.0243	244 ± 4
327.6 K, 8180 kPa, x1 = 0.0243	249 ± 4
327.6 K, 8250 kPa, x1 = 0.0243	253 ± 4
327.6 K, 8320 kPa, x1 = 0.0243	258 ± 4
327.6 K, 8390 kPa, x1 = 0.0243	263 ± 4
327.6 K, 8460 kPa, x1 = 0.0243	268 ± 4
327.6 K, 8480 kPa, x1 = 0.1488	758 ± 4
327.6 K, 8520 kPa, x1 = 0.0243	274 ± 4
327.6 K, 8590 kPa, x1 = 0.0243	279 ± 4
327.6 K, 8670 kPa, x1 = 0.0243	285 ± 4
327.6 K, 8710 kPa, x1 = 0.1488	762 ± 4
327.6 K, 8750 kPa, x1 = 0.0243	291 ± 4
327.6 K, 8820 kPa, x1 = 0.0243	298 ± 4
327.6 K, 8880 kPa, x1 = 0.0243	304 ± 4
327.6 K, 8920 kPa, x1 = 0.0981	692 ± 4
327.6 K, 8920 kPa, x1 = 0.1488	766 ± 4
327.6 K, 8950 kPa, x1 = 0.0243	311 ± 4
327.6 K, 9040 kPa, x1 = 0.0243	318 ± 4
327.6 K, 9050 kPa, x1 = 0.0981	698 ± 4
327.6 K, 9110 kPa, x1 = 0.0243	326 ± 4
327.6 K, 9140 kPa, x1 = 0.1488	770 ± 4
327.6 K, 9180 kPa, x1 = 0.0243	334 ± 4
327.6 K, 9200 kPa, x1 = 0.0981	704 ± 4
327.6 K, 9270 kPa, x1 = 0.0243	343 ± 4
327.6 K, 9350 kPa, x1 = 0.0243	352 ± 4
327.6 K, 9360 kPa, x1 = 0.0981	711 ± 4
327.6 K, 9370 kPa, x1 = 0.1488	774 ± 4
327.6 K, 9410 kPa, x1 = 0.0243	359 ± 4
327.6 K, 9410 kPa, x1 = 0.0483	469 ± 4
327.6 K, 9430 kPa, x1 = 0.0483	473 ± 4
327.6 K, 9460 kPa, x1 = 0.0243	364 ± 4
327.6 K, 9470 kPa, x1 = 0.0483	480 ± 4
327.6 K, 9520 kPa, x1 = 0.0483	487 ± 4
327.6 K, 9530 kPa, x1 = 0.0981	718 ± 4
327.6 K, 9570 kPa, x1 = 0.0483	494 ± 4
327.6 K, 9600 kPa, x1 = 0.1488	778 ± 4
327.6 K, 9620 kPa, x1 = 0.0483	502 ± 4
327.6 K, 9670 kPa, x1 = 0.0483	510 ± 4
327.6 K, 9730 kPa, x1 = 0.0483	518 ± 4
327.6 K, 9730 kPa, x1 = 0.0981	725 ± 4
327.6 K, 9790 kPa, x1 = 0.0483	526 ± 4
327.6 K, 9850 kPa, x1 = 0.1488	781 ± 4
327.6 K, 9860 kPa, x1 = 0.0483	535 ± 4
327.6 K, 9930 kPa, x1 = 0.0483	544 ± 4
327.6 K, 9940 kPa, x1 = 0.0981	731 ± 4
327.6 K, 10010 kPa, x1 = 0.0483	553 ± 4
327.6 K, 10090 kPa, x1 = 0.0483	562 ± 4
327.6 K, 10110 kPa, x1 = 0.1488	785 ± 4
327.6 K, 10190 kPa, x1 = 0.0483	572 ± 4
327.6 K, 10200 kPa, x1 = 0.0981	739 ± 4
327.6 K, 10290 kPa, x1 = 0.0483	582 ± 4
327.6 K, 10410 kPa, x1 = 0.0483	593 ± 4
327.6 K, 10410 kPa, x1 = 0.1488	790 ± 4
327.6 K, 10450 kPa, x1 = 0.0981	746 ± 4
327.6 K, 10540 kPa, x1 = 0.0483	604 ± 4
327.6 K, 10690 kPa, x1 = 0.0483	615 ± 4
327.6 K, 10720 kPa, x1 = 0.1488	794 ± 4
327.6 K, 10770 kPa, x1 = 0.0981	754 ± 4
327.6 K, 10810 kPa, x1 = 0.0483	623 ± 4
327.6 K, 10910 kPa, x1 = 0.0483	629 ± 4
327.6 K, 11000 kPa, x1 = 0.0483	635 ± 4
327.6 K, 11050 kPa, x1 = 0.1488	798 ± 4
327.6 K, 11060 kPa, x1 = 0.0483	639 ± 4
327.6 K, 11110 kPa, x1 = 0.0981	761 ± 4
327.6 K, 11140 kPa, x1 = 0.0483	644 ± 4
327.6 K, 11220 kPa, x1 = 0.0483	648 ± 4
327.6 K, 11380 kPa, x1 = 0.1488	802 ± 4
327.6 K, 11460 kPa, x1 = 0.0981	769 ± 4
327.6 K, 11770 kPa, x1 = 0.1488	806 ± 4
327.6 K, 11880 kPa, x1 = 0.0981	777 ± 4
327.6 K, 12150 kPa, x1 = 0.1488	811 ± 4
327.6 K, 12330 kPa, x1 = 0.0981	785 ± 4
327.6 K, 12530 kPa, x1 = 0.1488	815 ± 4
327.6 K, 12830 kPa, x1 = 0.0981	792 ± 4
327.6 K, 12950 kPa, x1 = 0.1488	819 ± 4
327.6 K, 13400 kPa, x1 = 0.1488	823 ± 4
327.6 K, 13410 kPa, x1 = 0.0981	802 ± 4
327.6 K, 13890 kPa, x1 = 0.1488	828 ± 4
327.6 K, 14220 kPa, x1 = 0.0981	813 ± 4
327.6 K, 14350 kPa, x1 = 0.1488	832 ± 4
327.6 K, 14900 kPa, x1 = 0.1488	837 ± 4
